# Experimental data published in patent US10463644B2, “Uses of sesquiterpene lactone compounds and their derivatives in drugs preparation” (ACCENDATECH, priority 2013, dated 2019).
# Like-named read-outs stand apart in the source and are kept apart here.
# Test system: cancer cells
# Test: Survival rate of cancer cells after test compound is added (flow cytometry, Annexin V-FITC/PI, clinical specimen)
# Type: cell-based, patient
# Details: Homo sapiens, 18 h, read-out: Survival rate (%) All cells (Stem cells and ordinary cells)
# Summary of the method: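 Patient tumour or leukaemia cells, identified by cancer-specific stem-cell markers (CD34+/CD38+ for AML), are treated with compound for 18 hours in serum-free IMDM. Apoptosis is then measured as Annexin V-FITC/PI staining by flow cytometry.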
# [1] = Head and neck squamous cell carcinomas
structure (smiles),measurement,setting,value
CC1=C2CC[C@@](C)(O)[C@@H]2[C@H]2OC(=O)[C@@H](CN(C)C)[C@@H]2CC1 [Compound 23],viability at 10 µM,AML,92%
same,viability at 20 µM,AML,84%
same,viability at 10 µM,Brain glioma,88%
same,viability at 20 µM,Brain glioma,85%
same,viability at 10 µM,Brain tumor,89%
same,viability at 20 µM,Brain tumor,85%
same,viability at 10 µM,Breast cancer,89%
same,viability at 20 µM,Breast cancer,86%
same,viability at 10 µM,CLL,95%
same,viability at 20 µM,CLL,85%
same,viability at 10 µM,CML,91%
same,viability at 20 µM,CML,79%
same,viability at 10 µM,Children hepatoblastoma,93%
same,viability at 20 µM,Children hepatoblastoma,86%
same,viability at 10 µM,Colon adenocarcinoma,91%
same,viability at 20 µM,Colon adenocarcinoma,89%
same,viability at 10 µM,Colorectal cancer,88%
same,viability at 20 µM,Colorectal cancer,81%
same,viability at 10 µM,Gastric cancer,86%
same,viability at 20 µM,Gastric cancer,84%
same,viability at 10 µM,Gastrointestinal tumor,94%
same,viability at 20 µM,Gastrointestinal tumor,88%
same,viability at 10 µM,Glioma,94%
same,viability at 20 µM,Glioma,87%
same,viability at 10 µM,[1],91%
same,viability at 20 µM,[1],88%
same,viability at 10 µM,Laryngeal cancer,88%
same,viability at 20 µM,Laryngeal cancer,82%
same,viability at 10 µM,Liver cancer,88%
same,viability at 20 µM,Liver cancer,87%
same,viability at 10 µM,Lung adenocarcinoma,87%
same,viability at 20 µM,Lung adenocarcinoma,87%
same,viability at 10 µM,Lung cancer,88%
same,viability at 20 µM,Lung cancer,84%
same,viability at 10 µM,Malignant melanoma,89%
same,viability at 20 µM,Malignant melanoma,86%
same,viability at 10 µM,Nasopharynx cancer,94%
same,viability at 20 µM,Nasopharynx cancer,81%
same,viability at 10 µM,Ovarian cancer,91%
same,viability at 20 µM,Ovarian cancer,84%
same,viability at 10 µM,Pancreatic cancer,90%
same,viability at 20 µM,Pancreatic cancer,86%
same,viability at 10 µM,Prostate cancer,92%
same,viability at 20 µM,Prostate cancer,89%
same,viability at 10 µM,Retinoblastoma,91%
same,viability at 20 µM,Retinoblastoma,85%
same,viability at 10 µM,Skin cancer,95%
same,viability at 20 µM,Skin cancer,87%
C=C1C(=O)O[C@H]2[C@H]1CC[C@]1(C)O[C@@]13CC[C@@](C)(O)[C@H]23 [Compound 24],viability at 10 µM,AML,59%
same,viability at 20 µM,AML,48%
same,viability at 10 µM,Brain glioma,65%
same,viability at 20 µM,Brain glioma,53%
same,viability at 10 µM,Brain tumor,74%
same,viability at 20 µM,Brain tumor,69%
same,viability at 10 µM,Breast cancer,77%
same,viability at 20 µM,Breast cancer,58%
same,viability at 10 µM,CLL,67%
same,viability at 20 µM,CLL,48%
same,viability at 10 µM,CML,69%
same,viability at 20 µM,CML,51%
same,viability at 10 µM,Children hepatoblastoma,75%
same,viability at 20 µM,Children hepatoblastoma,68%
same,viability at 10 µM,Colon adenocarcinoma,66%
same,viability at 20 µM,Colon adenocarcinoma,57%
same,viability at 10 µM,Colorectal cancer,78%
same,viability at 20 µM,Colorectal cancer,67%
same,viability at 10 µM,Gastric cancer,66%
same,viability at 20 µM,Gastric cancer,48%
same,viability at 10 µM,Gastrointestinal tumor,72%
same,viability at 20 µM,Gastrointestinal tumor,62%
same,viability at 10 µM,Glioma,78%
same,viability at 20 µM,Glioma,74%
same,viability at 10 µM,[1],76%
same,viability at 20 µM,[1],68%
same,viability at 10 µM,Laryngeal cancer,75%
same,viability at 20 µM,Laryngeal cancer,66%
same,viability at 10 µM,Liver cancer,82%
same,viability at 20 µM,Liver cancer,72%
same,viability at 10 µM,Lung adenocarcinoma,78%
same,viability at 20 µM,Lung adenocarcinoma,64%
same,viability at 10 µM,Lung cancer,72%
same,viability at 20 µM,Lung cancer,66%
same,viability at 10 µM,Malignant melanoma,88%
same,viability at 20 µM,Malignant melanoma,86%
same,viability at 10 µM,Nasopharynx cancer,64%
same,viability at 20 µM,Nasopharynx cancer,59%
same,viability at 10 µM,Ovarian cancer,68%
same,viability at 20 µM,Ovarian cancer,61%
same,viability at 10 µM,Pancreatic cancer,68%
same,viability at 20 µM,Pancreatic cancer,62%
same,viability at 10 µM,Prostate cancer,75%
same,viability at 20 µM,Prostate cancer,62%
same,viability at 10 µM,Retinoblastoma,82%
same,viability at 20 µM,Retinoblastoma,69%
same,viability at 10 µM,Skin cancer,62%
same,viability at 20 µM,Skin cancer,47%
CCOC(=O)[C@@H]1CCCN1C[C@@H]1C(=O)O[C@H]2[C@H]1CCC1(CC1)[C@@H]1CCC3(CC3)[C@H]21 [Compound 29],viability at 10 µM,AML,91%
same,viability at 20 µM,AML,88%
same,viability at 10 µM,Brain glioma,89%
same,viability at 20 µM,Brain glioma,86%
same,viability at 10 µM,Brain tumor,94%
same,viability at 20 µM,Brain tumor,87%
same,viability at 10 µM,Breast cancer,88%
same,viability at 20 µM,Breast cancer,81%
same,viability at 10 µM,CLL,88%
same,viability at 20 µM,CLL,85%
same,viability at 10 µM,CML,87%
same,viability at 20 µM,CML,83%
same,viability at 10 µM,Children hepatoblastoma,92%
same,viability at 20 µM,Children hepatoblastoma,89%
same,viability at 10 µM,Colon adenocarcinoma,87%
same,viability at 20 µM,Colon adenocarcinoma,83%
same,viability at 10 µM,Colorectal cancer,91%
same,viability at 20 µM,Colorectal cancer,88%
same,viability at 10 µM,Gastric cancer,88%
same,viability at 20 µM,Gastric cancer,81%
same,viability at 10 µM,Gastrointestinal tumor,87%
same,viability at 20 µM,Gastrointestinal tumor,83%
same,viability at 10 µM,Glioma,91%
same,viability at 20 µM,Glioma,88%
same,viability at 10 µM,[1],88%
same,viability at 20 µM,[1],85%
same,viability at 10 µM,Laryngeal cancer,93%
same,viability at 20 µM,Laryngeal cancer,86%
same,viability at 10 µM,Liver cancer,92%
same,viability at 20 µM,Liver cancer,89%
same,viability at 10 µM,Lung adenocarcinoma,91%
same,viability at 20 µM,Lung adenocarcinoma,89%
same,viability at 10 µM,Lung cancer,94%
same,viability at 20 µM,Lung cancer,87%
same,viability at 10 µM,Malignant melanoma,91%
same,viability at 20 µM,Malignant melanoma,87%
same,viability at 10 µM,Nasopharynx cancer,88%
same,viability at 20 µM,Nasopharynx cancer,85%
same,viability at 10 µM,Ovarian cancer,91%
same,viability at 20 µM,Ovarian cancer,89%
same,viability at 10 µM,Pancreatic cancer,88%
same,viability at 20 µM,Pancreatic cancer,89%
same,viability at 10 µM,Prostate cancer,93%
same,viability at 20 µM,Prostate cancer,86%
same,viability at 10 µM,Retinoblastoma,92%
same,viability at 20 µM,Retinoblastoma,89%
same,viability at 10 µM,Skin cancer,91%
same,viability at 20 µM,Skin cancer,87%
